Among the data in US12582641B2, “Sulfur-containing compound based on glutarimide skeleton and application thereof” (SHANGHAITECH UNIVERSITY, priority 2019, dated 2026) are IC50 values, retold here.

The test system of this assay is MM.1S cells. Kind of assay: Proliferation inhibition (IC50) in MM.1S cells, cell viability assay. The settings on record: Homo sapiens, MM1.S, 72 h, read-out: IC50 (nM), proliferation inhibitory activity of MM.1S cells (half inhibitory concentration).
Experimental: MM.1S (B lymphoblast) was purchased from ATCC. Complete medium was RPMI1640 supplemented with 10% FBS and 1% Penicillin-Streptomycin. The cells used were identified as correct cells by STR cells, and were negative for mycoplasma through routine inspections.
IC50 values of the compounds of the present disclosure were measured using Cell Titer Blue, Cell Titer GLO, or WST reagent from Promega Company. Assay details are as follows: Cells were seeded in 100 μL RPMI1640 complete medium containing serum at a density of 15,000 cells/well. After 24 h, the inoculated cells were treated with diluted commercial inhibitor and the compounds of the present disclosure to be tested after serial dilution. After the cells were treated with the compounds of the present disclosure to be tested for 72 h, cell viability was determined after adding the cell viability detection kit listed above according to the reagent operating instructions. The negative control was DMSO, and the positive control was a commercial inhibitor, both of which were used to treat the cells through the same method as that of the compounds of the present disclosure. The growth inhibition of the compounds of the present disclosure on cells was plotted by Prism Graphpad software, and the IC50 values of the compounds of the present disclosure were calculated therefrom.
We tested the activities of the compounds of the present invention in MM.1S cell (which overexpressed IKZF1/3 and is highly sensitive to immunomodulatory drugs) through a dose-dependent manner. The cells were treated with the compounds of the present invention at 10 different successively decreasing concentrations (starting at the highest concentration of 10 μM; 5-fold serial dilutions) for 72 h, and then the cell viability determination was performed in accordance with CCK-8 reagent operating instructions. The experiment was repeated more than three times.
On to `O=C1CCC(N2C(=O)c3cccc(SCc4ccc(CCCN5CCCCC5)cc4)c3C2=O)C(=O)N1` (stereo not shown) [SIAIS1227085, 2-(2,6-dioxopiperidin-3-yl)-4-((4-(3-(piperidin-1-yl)propyl)benzyl)thio)isoindoline-1,3-dione], for which the IC50 was found to be 0.37 nM.

For the compound `O=C1CCC(N2C(=O)c3cccc(SCc4ccc(CCCNC5CCCCC5)cc4)c3C2=O)C(=O)N1` (stereo not shown) [SIAIS1227087, 4-((4-(3-(cyclohexylamino)propyl)benzyl)thio)-2-(2,6-dioxopiperidin-3-yl)isoindoline-1,3-dione], the IC50 was 0.283 nM.

On to `O=C1CCC(N2C(=O)c3cccc(SCc4ccc(CCCN5CCOCC5)cc4)c3C2=O)C(=O)N1` (stereo not shown) [SIAIS1227091, 2-(2,6-dioxopiperidin-3-yl)-4-((4-(3-morpholinopropyl)benzyl)thio) isoindoline-1,3-dione], for which the IC50 stood at 2 nM.

In the case of `CCN(CC)CCc1ccc(CSc2cccc3c2CN(C2CCC(=O)NC2=O)C3=O)cc1` (stereo not shown) [SIAIS1227097, 3-(4-((4-(2-(diethylamino)ethyl)benzyl)thio)-1-oxoisoindolin-2-yl)piperidine-2,6-dione], the IC50 came out at 0.163 nM.

In the case of `CN1CCN(CCc2ccc(CSc3cccc4c3CN(C3CCC(=O)NC3=O)C4=O)cc2)CC1` (stereo not shown) [SIAIS1227099, 3-(4-((4-(2-(4-methylpiperazin-1-yl)ethyl)benzyl)thio)-1-oxoisoindolin-2-yl)piperidine-2,6-dione], the IC50 turned out to be 0.311 nM.

On to `CC1(C)CCC(NCCc2ccc(CSc3cccc4c3CN(C3CCC(=O)NC3=O)C4=O)cc2)CC1` (stereo not shown) [SIAIS1227103, 3-(4-((4-(2-((4,4-dimethylcyclohexyl)amino)ethyl)benzyl)thio)-1-oxoisoindolin-2-yl)piperidine-2,6-dione], for which the IC50 was 0.02 nM.

For the compound `CC1(C)CCC(NCc2ccc(CSc3cccc4c3CN(C3CCC(=O)NC3=O)C4=O)cc2)CC1` (stereo not shown) [SIAIS1227105, 3-(4-((4-(((4,4-dimethylcyclohexyl)amino)methyl)benzyl)thio)-1-oxoisoindolin-2-yl)piperidine-2,6-dione], the IC50 was 0.05 ± 0.01 nM.

Turning to `CC(C)(C)NCc1ccc(CSc2cccc3c2CN(C2CCC(=O)NC2=O)C3=O)cc1` (stereo not shown) [SIAIS1227107, 3-(4-((4-((tert-butylamino)methyl)benzyl)thio)-1-oxoisoindolin-2-yl)piperidine-2,6-dione], the IC50 came out at 0.27 ± 0.07 nM.

Turning to `O=C1CCC(N2Cc3c(SCc4ccc(CN5CCCCCCC5)cc4)cccc3C2=O)C(=O)N1` (stereo not shown) [SIAIS1227109, 3-(4-((4-(azocan-1-ylmethyl)benzyl)thio)-1-oxoisoindolin-2-yl)piperidine-2,6-dione], the IC50 came to 0.03 ± 0.004 nM.

Regarding `CC1(C)CCN(Cc2ccc(CSc3cccc4c3CN(C3CCC(=O)NC3=O)C4=O)cc2)CC1` (stereo not shown) [SIAIS1227113, 3-(4-((4-((4,4-dimethylpiperidin-1-yl)methyl)benzyl)thio)-1-oxoisoindolin-2-yl)piperidine-2,6-dione], the IC50 is 0.03 ± 0.01 nM.

Turning to `O=C1CCC(N2Cc3c(SCc4ccc(CN5CCC6(CC5)CC6)cc4)cccc3C2=O)C(=O)N1` (stereo not shown) [SIAIS1227115, 3-(4-((4-((6-azaspiro[2.5]octan-6-yl)methyl)benzyl)thio)-1-oxoisoindolin-2-yl)piperidine-2,6-dione], the IC50 was determined as 0.04 ± 0.01 nM.

In the case of `CC1CC(C)CN(Cc2ccc(CSc3cccc4c3CN(C3CCC(=O)NC3=O)C4=O)cc2)C1` (stereo not shown) [SIAIS1227117, 3-(4-((4-((3,5-dimethylpiperidin-1-yl)methyl)benzyl)thio)-1-oxoisoindolin-2-yl)piperidine-2,6-dione], the IC50 amounted to 0.2 ± 0.08 nM.

Regarding `O=C1CCC(N2Cc3c(SCc4ccc(CN5CCC6(CCCCC6)CC5)cc4)cccc3C2=O)C(=O)N1` (stereo not shown) [SIAIS1227119, 3-(4-((4-((3-azaspiro[5.5]undecan-3-yl)methyl)benzyl)thio)-1-oxoisoindolin-2-yl)piperidine-2,6-dione], the IC50 is 0.2 nM.

For `O=C1CCC(N2Cc3c(SCc4cccc(CN5CCCCC5)c4)cccc3C2=O)C(=O)N1` (stereo not shown) [SIAIS1227131, 3-(1-oxo-4-((3-(piperidin-1-ylmethyl)benzyl)thio)isoindolin-2-yl)piperidine-2,6-dione], the IC50 is 0.89 ± 0.22 nM.

In the case of `O=C1CCC(N2Cc3c(SCc4cccc(CNC5CCCCC5)c4)cccc3C2=O)C(=O)N1` (stereo not shown) [SIAIS1227133, 3-(4-((3-((cyclohexylamino)methyl)benzyl)thio)-1-oxoisoindolin-2-yl)piperidine-2,6-dione], the IC50 is 0.13 ± 0.07 nM.

Consider `O=C1CCC(N2Cc3c(SCc4cccc(CNC56CC7CC(CC(C7)C5)C6)c4)cccc3C2=O)C(=O)N1` (stereo not shown) [SIAIS1227135, 3-(4-((3-(((adamantan-1-yl)amino)methyl)benzyl)thio)-1-oxoisoindolin-2-yl)piperidine-2,6-dione], for which the IC50 is 0.03 ± 0.01 nM.

Take `O=C1CCC(N2Cc3c(SCc4cccc(CN5CCOCC5)c4)cccc3C2=O)C(=O)N1` (stereo not shown) [SIAIS1227137, 3-(4-((3-(morpholinomethyl)benzyl)thio)-1-oxoisoindolin-2-yl)piperidine-2,6-dione]: the IC50 was determined as 1.04 ± 0.49 nM.

Regarding `O=C1CCC(N2Cc3c(SCc4cc(Br)c(CN5CCCCC5)cc4Br)cccc3C2=O)C(=O)N1` (stereo not shown) [SIAIS1227139, 3-(4-((2,5-dibromo-4-(piperidin-1-ylmethyl)benzyl)thio)-1-oxoisoindolin-2-yl)piperidine-2,6-dione], the IC50 is 1.04 ± 0.21 nM.

As to `O=C1CCC(N2Cc3c(SCc4cc(Br)c(CNC5CCCCC5)cc4Br)cccc3C2=O)C(=O)N1` (stereo not shown) [SIAIS1227141, 3-(4-((2,5-dibromo-4-((cyclohexylamino)methyl)benzyl)thio)-1-oxoisoindolin-2-yl)piperidine-2,6-dione], the IC50 came to 4.98 ± 0.99 nM.

As to `O=C1CCC(N2Cc3c(SCc4cc(Br)c(CNC56CC7CC(CC(C7)C5)C6)cc4Br)cccc3C2=O)C(=O)N1` (stereo not shown) [SIAIS1227143, 3-(4-((4-(((adamantan-1-yl)amino)methyl)-2,5-dibromobenzyl)thio)-1-oxoisoindolin-2-yl)piperidine-2,6-dione], the IC50 turned out to be 0.11 ± 0.17 nM.

For `O=C1CCC(N2Cc3c(SCc4ccc(CCN5CCCCCCC5)cc4)cccc3C2=O)C(=O)N1` (stereo not shown) [SIAIS1227159, 3-(4-((4-(2-(azocan-1-yl)ethyl)benzyl)thio)-1-oxoisoindolin-2-yl)piperidine-2,6-dione], the IC50 came to 0.02 nM.

For the compound `O=C1CCC(N2Cc3c(SCc4ccc(CCN5CCC(F)(F)CC5)cc4)cccc3C2=O)C(=O)N1` (stereo not shown) [SIAIS1227161, 3-(4-((4-(2-(4,4-difluoropiperidin-1-yl)ethyl)benzyl)thio)-1-oxoisoindolin-2-yl)piperidine-2,6-dione], the IC50 amounted to 0.025 nM.

Regarding `O=C1CCC(N2Cc3c(SCc4ccc(CCN5CCC6(CC5)CC6)cc4)cccc3C2=O)C(=O)N1` (stereo not shown) [SIAIS1227163, 3-(4-((4-(2-(6-azaspiro[2.5]octan-6-yl)ethyl)benzyl)thio)-1-oxoisoindolin-2-yl)piperidine-2,6-dione], the IC50 was found to be 0.021 nM.

`CC1CC(C)CN(CCc2ccc(CSc3cccc4c3CN(C3CCC(=O)NC3=O)C4=O)cc2)C1` (stereo not shown) [SIAIS1227165, 3-(4-((4-(2-(3,5-dimethylpiperidin-1-yl)ethyl)benzyl)thio)-1-oxoisoindolin-2-yl)piperidine-2,6-dione]: the IC50 turned out to be 0.023 nM.

Regarding `O=C1CCC(N2Cc3c(SCc4ccc(CN5CCC(F)(F)CC5)cc4)cccc3C2=O)C(=O)N1` (stereo not shown) [SIAIS1227167, 3-(4-((4-((4,4-difluoropiperidin-1-yl)methyl)benzyl)thio)-1-oxoisoindolin-2-yl)piperidine-2,6-dione], the IC50 came to 0.064 nM.

As to `CN1CCN(Cc2ccc(CSc3cccc4c3CN(C3CCC(=O)NC3=O)C4=O)cc2)CC1` (stereo not shown) [SIAIS1227169, 3-(4-((4-((4-methylpiperazin-1-yl)methyl)benzyl)thio)-1-oxoisoindolin-2-yl)piperidine-2,6-dione], the IC50 was determined as 0.12 nM.

Turning to `O=C1CCC(N2Cc3c(SCc4ccc(CN5C[C@H]6CCCC[C@H]6C5)cc4)cccc3C2=O)C(=O)N1` (stereo partly drawn) [SIAIS1227171, 3-(4-((4-(((3aR,7aS)-octahydro-2H-isoindol-2-yl)methyl)benzyl)thio)-1-oxoisoindolin-2-yl)piperidine-2,6-dione], the IC50 was determined as 0.021 nM.

For the compound `C[C@@H](NCc1ccc(CSc2cccc3c2CN(C2CCC(=O)NC2=O)C3=O)cc1)C1CC1` (stereo partly drawn) [SIAIS1227173, 3-(4-((4-((((R)-1-cyclopropylethyl)amino)methyl)benzyl)thio)-1-oxoisoindolin-2-yl)piperidine-2,6-dione], the IC50 was determined as 0.095 nM.

`O=C1CCC(N2Cc3c(SCc4ccc(CN5CCCCC5)cc4F)cccc3C2=O)C(=O)N1` (stereo not shown) [SIAIS1227175, 3-(4-((2-fluoro-4-(piperidin-1-ylmethyl)benzyl)thio)-1-oxoisoindolin-2-yl)piperidine-2,6-dione]: the IC50 worked out at 0.073 nM.

Consider `O=C1CCC(N2Cc3c(SCc4ccc(CNC5CCCCC5)cc4F)cccc3C2=O)C(=O)N1` (stereo not shown) [SIAIS1227177, 3-(4-((4-((cyclohexylamino)methyl)-2-fluorobenzyl)thio)-1-oxoisoindolin-2-yl)piperidine-2,6-dione], for which the IC50 is 0.097 nM.

Take `O=C1CCC(N2Cc3c(SCc4ccc(CNC56CC7CC(CC(C7)C5)C6)cc4F)cccc3C2=O)C(=O)N1` (stereo not shown) [SIAIS1227179, 3-(4-((4-(((adamantan-1-yl)amino)methyl)-2-fluorobenzyl)thio)-1-oxoisoindolin-2-yl)piperidine-2,6-dione]: the IC50 was determined as 0.029 nM.

Turning to `O=C1CCC(N2Cc3c(SCc4ccc(CN5CCOCC5)cc4F)cccc3C2=O)C(=O)N1` (stereo not shown) [SIAIS1227181, 3-(4-((2-fluoro-4-(morpholinomethyl)benzyl)thio)-1-oxoisoindolin-2-yl)piperidine-2,6-dione], the IC50 was determined as 0.113 nM.

As for `O=C1CCC(N2Cc3c(SCc4ccc(CNC(C5CC5)C5CC5)cc4)cccc3C2=O)C(=O)N1` (stereo not shown) [SIAIS1227183, 3-(4-((4-(((dicyclopropylmethyl)amino)methyl)benzyl)thio)-1-oxoisoindolin-2-yl)piperidine-2,6-dione], the IC50 was determined as 0.039 nM.

In the case of `O=C1CCC(N2Cc3c(SCc4ccc(CNC56CC7CC(CC5C7)C6)cc4)cccc3C2=O)C(=O)N1` (stereo not shown) [SIAIS1228019, 3-(4-((4-(((hexahydro-2,5-methanopentalen-3a(1H)-yl)amino)methyl)benzyl)thio)-1-oxoisoindolin-2-yl)piperidine-2,6-dione], the IC50 turned out to be 0.051 nM.
